Data published in patent US11253610B2, “Plant virus particles for delivery of antimitotic agents” (CASE WESTERN RESERVE UNIVERSITY, priority 2015, dated 2022).
Numbered stars: 1 amine (or outer) side, 2 acyl side, 3 side chain; on linkers, the order of the positions; unused ones are H or OH. Square brackets hold non-standard residues; d marks the D form. Peptide text beside a SMILES is read from it. * marks the point of attachment. Dolaproine = CO[C@@H]([C@@H]1CCCN1)[C@@H](C)C(=O)O; Hexanoyl(6-maleimido) = O=C1C=CC(=O)N1CCCCCC(=O)*; Dil = CC[C@H](C)[C@H](NC)[C@@H](CC(=O)O)OC; PABC = O=C(OCc1ccc(N[*:1])cc1)[*:2]; X1 = C[C@@H](N*)[C@@H](O)c1ccccc1; Cit = NC(=O)NCCC[C@H](N)C(=O)O; NMeV = CN[C@H](C(=O)O)C(C)C

Tests used:
[1] = vary with assay set up, time course and cell lines used; read-out: IC50 values in the literature; cited from earlier work
[2] = tested on: Karpas 299 cells; assay: Cell viability assay (Alamar Blue); type: cell-based, human; conditions: 72 hours incubation, read-out: IC50 (drug concentration where half of the cells are killed)
Experimental: Cell culture. Karpas 299 cells (ATCC) were maintained in RPMI-1640 at 37° C. in a 5% CO2 humidified atmosphere. The medium was supplemented with 20% (v/v) heat-inactivated fetal bovine serum (FBS), and 1% (v/v) penicillin-streptomycin. All reagents were obtained from Gibco.
Cell viability assay. Cells at a concentration of 10,000 cells/mL were seeded in a sterile, tissue culture-treated, 96-well clear bottom plate for 24 hours at 37° C. in a 5% CO2 humidified atmosphere. Cells were then incubated with fresh media with 0.02 nM to 200 nM VcMMAE for 72 hours. At 92 hours, Alamar Blue (ThermoFisher) was added, and cell viability was measured at 96 hours according to the manufacturer's instructions using a fluorescence plate reader with […].
To evaluate the efficacy of TMV-vcMMAE, cell viability assays were performed using Alamar Blue assay Alamar Blue reagent is primarily made of resazurin, a nontoxic cell permeable non-fluorescent blue molecule. […]
Karpas 299 cells were seeded for 24 hours and then incubated with free vcMMAE or TMV-MMAE for 72 hours. At 92 hours, Alamar Blue was added and the cells fluorescence was measured after 4 hours of incubation at 540 nm excitation and 610 nm emission. The results for both free vcMMAE and TMV-MMAE are plotted in FIG. 4, and the IC50 values were calculated. […]

## CC[C@H](C)[C@@H]([C@@H](CC(=O)N1CCC[C@H]1[C@H](OC)[C@@H](C)C(=O)N[C@H](C)[C@@H](O)c1ccccc1)OC)N(C)C(=O)[C@@H](NC(=O)[C@H](C(C)C)N(C)C(=O)OCc1ccc(NC(=O)[C@H](CCCNC(N)=O)NC(=O)[C@@H](NC(=O)CCCCCN2C(=O)C=CC2=O)C(C)C)cc1)C(C)C [vcMMAE, valine-citrulline monomethyl auristatin E] ({Hexanoyl(6-maleimido)}-V[Cit][PABC][NMeV]V[Dil][Dolaproine]-X1)
[1]
  IC50: ~0.005 µM
[2]
  IC50: ~0.0258 µM
